From ChEMBL document CHEMBL1201862, “PubChem BioAssay data set” (2004)
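Method: 48-hour compound exposure of cells in 96-well plates, five concentrations, linear interpolation of endpoints. GI50: concentration for 50% inhibition of growth.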 Active and inactive are the calls of the source. No stated cut-off is given here; in the data, active = GI50 up to about 1.1 µM and inactive = higher.

Tests used:
Experiment in all cases: NCI-60 cell line screen, 48 h
UACC-62 = system: UACC-62
SF-295 = system: SF-295
TK-10 = system: TK-10
SF-268 = system: SF-268
HCC 2998 = system: HCC 2998
SW-620 = system: SW-620
SK-MEL-28 = system: SK-MEL-28
U-251 = system: U-251
EKVX = system: EKVX
SN12C = system: SN12C
A549 = system: A549
CCRF-CEM = system: CCRF-CEM
SNB-75 = system: SNB-75
NCI/ADR-RES = system: NCI/ADR-RES
SNB-19 = system: SNB-19
CAKI-1 = system: CAKI-1
NCI-H460 = system: NCI-H460
HL-60 = system: HL-60
PC-3 = system: PC-3
SR = system: SR

SMILES | GI50 (UACC-62) | GI50 (SF-295) | GI50 (TK-10) | GI50 (SF-268) | GI50 (HCC 2998) | GI50 (SW-620) | GI50 (SK-MEL-28) | GI50 (U-251) | GI50 (EKVX) | GI50 (SN12C) | GI50 (A549) | GI50 (CCRF-CEM) | GI50 (SNB-75) | GI50 (NCI/ADR-RES) | GI50 (SNB-19) | GI50 (CAKI-1) | GI50 (NCI-H460) | GI50 (HL-60) | GI50 (PC-3) | GI50 (SR)
O=C1CCCC2=C1C(c1ccc3c(c1)OCO3)Nc1ccc3ccccc3c12 (configuration not stated) | > 100 µM (inactive) | > 100 µM (inactive) | > 100 µM (inactive) | > 100 µM (inactive) | > 100 µM (inactive) | > 100 µM (inactive) | > 100 µM (inactive) | > 100 µM (inactive) | 36.9 µM (inactive) | > 100 µM (inactive) | > 100 µM (inactive) | > 100 µM (inactive) | > 100 µM (inactive) | 55.1 µM (inactive) | > 100 µM (inactive) | > 100 µM (inactive) | > 100 µM (inactive) |  |  | 
Cc1ccc(C)c2c1CC(Cc1ccccc1C(=O)O)C2=O (configuration not stated) | > 100 µM (inactive) | > 100 µM (inactive) | > 100 µM (inactive) | > 100 µM (inactive) | > 100 µM (inactive) | > 100 µM (inactive) | > 100 µM (inactive) | > 100 µM (inactive) | > 100 µM (inactive) | > 100 µM (inactive) | > 100 µM (inactive) | > 100 µM (inactive) | > 100 µM (inactive) | > 100 µM (inactive) | > 100 µM (inactive) | > 100 µM (inactive) | > 100 µM (inactive) | > 100 µM (inactive) | > 100 µM (inactive) | 
COc1ccc(OC/C(N)=N/NC(=O)c2ccncc2)cc1 | > 100 µM (inactive) | > 100 µM (inactive) | > 100 µM (inactive) | > 100 µM (inactive) | > 100 µM (inactive) | > 100 µM (inactive) | > 100 µM (inactive) | > 100 µM (inactive) | > 100 µM (inactive) | > 100 µM (inactive) | > 100 µM (inactive) | > 100 µM (inactive) | 8.22 µM (inactive) | > 100 µM (inactive) | > 100 µM (inactive) | > 100 µM (inactive) | > 100 µM (inactive) | > 100 µM (inactive) | > 100 µM (inactive) | 
c1ccc(NC2(c3nnnn3C3CCCCC3)CCNCC2)cc1 | 18.3 µM (inactive) | 17.9 µM (inactive) | 16.8 µM (inactive) | 39.6 µM (inactive) | 11.7 µM (inactive) | 22.2 µM (inactive) | 17.9 µM (inactive) | 16.6 µM (inactive) | 20.7 µM (inactive) | 36.6 µM (inactive) | 32.4 µM (inactive) | 20.4 µM (inactive) | 14.9 µM (inactive) | 66.5 µM (inactive) | 17.5 µM (inactive) |  | 15.2 µM (inactive) | 14.1 µM (inactive) |  | 17.5 µM (inactive)
N=C(N)Nc1ccc(CC(N)C(=O)NCC(=O)C(CC(=O)O)c2ncc(NC(=O)C(F)(F)F)o2)cc1 (configuration not stated) | > 25 µM (inactive) | > 25 µM (inactive) | > 25 µM (inactive) | > 25 µM (inactive) | > 25 µM (inactive) | > 25 µM (inactive) | > 25 µM (inactive) | > 25 µM (inactive) | > 25 µM (inactive) | 9.27 µM (inactive) | > 25 µM (inactive) | > 25 µM (inactive) | > 25 µM (inactive) | > 25 µM (inactive) |  | > 25 µM (inactive) | > 25 µM (inactive) | > 25 µM (inactive) | > 25 µM (inactive) | 
Nc1nc(Nc2ccc(Cl)cc2)sc1C(=O)c1cc2ccccc2oc1=O | 55.8 µM (inactive) |  | > 100 µM (inactive) | 18.3 µM (inactive) | 41.9 µM (inactive) | 54.1 µM (inactive) | 46.5 µM (inactive) | 18.8 µM (inactive) |  | 14.2 µM (inactive) | 98.9 µM (inactive) | 7.38 µM (inactive) | 7.55 µM (inactive) | 38.5 µM (inactive) | > 100 µM (inactive) |  | 31 µM (inactive) | 33 µM (inactive) | 48.1 µM (inactive) | 
O=C1C[C@H](c2ccccc2)O[C@@H](c2ccccc2)C1 | > 100 µM (inactive) | > 100 µM (inactive) |  | > 100 µM (inactive) | > 100 µM (inactive) | > 100 µM (inactive) | > 100 µM (inactive) | > 100 µM (inactive) | > 100 µM (inactive) | > 100 µM (inactive) | > 100 µM (inactive) | > 100 µM (inactive) | > 100 µM (inactive) | > 100 µM (inactive) | > 100 µM (inactive) | > 100 µM (inactive) | > 100 µM (inactive) |  | > 100 µM (inactive) | 
Cc1c(C(=O)/C=C/c2ccc([N+](=O)[O-])cc2)[n+]([O-])c2ccccc2[n+]1[O-] | 41.7 µM (inactive) | > 100 µM (inactive) | > 100 µM (inactive) | > 100 µM (inactive) | > 100 µM (inactive) | 67 µM (inactive) | > 100 µM (inactive) | 92.5 µM (inactive) | > 100 µM (inactive) | > 100 µM (inactive) | > 100 µM (inactive) | 20.9 µM (inactive) | 41.4 µM (inactive) |  | > 100 µM (inactive) | 64.7 µM (inactive) | 62.2 µM (inactive) | 0.923 µM (active) |  | 43 µM (inactive)
